Test results from ChEMBL document CHEMBL1147509, “Pharmacology of the agonist binding sites of rat neuronal nicotinic receptor subtypes expressed in HEK 293 cells” (Bioorg Med Chem Lett, 2004).

Tests used:
[1] = target: Neuronal acetylcholine receptor; alpha3/beta2 (Rattus norvegicus, UniProt P04757+P12390); experiment: Binding affinity towards rat Nicotinic acetylcholine receptor alpha3-beta2 expressed in HEK293 cells using [3H]EB as radioligand; type: cell-based
[2] = Ratio between the binding affinities towards rat alpha4-beta4 and alpha4-beta2 nACh receptor using [3H]EB as radioligand
[3] = target: Neuronal acetylcholine receptor; alpha2/beta2 (Rattus norvegicus, UniProt P12389+P12390); experiment: Binding affinity towards rat nicotinic acetylcholine receptor alpha2-beta2 expressed in HEK293 cells using [3H]EB as radioligand; type: cell-based
[4] = Ratio between the binding affinities towards rat alpha3-beta4 and forebrain nACh receptor using [3H]EB as radioligand
[5] = Binding affinity towards rat alpha2-beta4 nACh receptor expressed in HEK293 cells using [3H]EB as radioligand; type: cell-based
[6] = Ratio between the binding affinities towards rat alpha2-beta4 and alpha2-beta2 nACh receptor using [3H]-EB as radioligand
[7] = target: Neuronal acetylcholine receptor; alpha3/beta4 (Rattus norvegicus, UniProt P04757+P12392); experiment: Binding affinity towards rat Nicotinic acetylcholine receptor alpha3-beta4 expressed in HEK293 cells using [3H]EB as radioligand; type: cell-based
[8] = target: Neuronal acetylcholine receptor; experiment: Binding affinity towards rat forebrain nicotinic acetylcholine receptor using [3H]EB as radioligand
[9] = target: Neuronal acetylcholine receptor; alpha4/beta4 (Rattus norvegicus, UniProt P09483+P12392); experiment: Binding affinity towards rat Nicotinic acetylcholine receptor alpha4-beta4 expressed in HEK293 cells using [3H]EB as radioligand; type: cell-based
[10] = target: Neuronal acetylcholine receptor; alpha4/beta2 (Rattus norvegicus, UniProt P09483+P12390); experiment: Binding affinity towards rat Nicotinic acetylcholine receptor alpha4-beta2 expressed in HEK293 cells using [3H]EB as radioligand; type: cell-based
[11] = Ratio between the binding affinities towards rat alpha3-beta4 and alpha3-beta2 nACh receptor using [3H]EB as radioligand

Sequence of Neuronal acetylcholine receptor; alpha3/beta2 (P04757 whole entry): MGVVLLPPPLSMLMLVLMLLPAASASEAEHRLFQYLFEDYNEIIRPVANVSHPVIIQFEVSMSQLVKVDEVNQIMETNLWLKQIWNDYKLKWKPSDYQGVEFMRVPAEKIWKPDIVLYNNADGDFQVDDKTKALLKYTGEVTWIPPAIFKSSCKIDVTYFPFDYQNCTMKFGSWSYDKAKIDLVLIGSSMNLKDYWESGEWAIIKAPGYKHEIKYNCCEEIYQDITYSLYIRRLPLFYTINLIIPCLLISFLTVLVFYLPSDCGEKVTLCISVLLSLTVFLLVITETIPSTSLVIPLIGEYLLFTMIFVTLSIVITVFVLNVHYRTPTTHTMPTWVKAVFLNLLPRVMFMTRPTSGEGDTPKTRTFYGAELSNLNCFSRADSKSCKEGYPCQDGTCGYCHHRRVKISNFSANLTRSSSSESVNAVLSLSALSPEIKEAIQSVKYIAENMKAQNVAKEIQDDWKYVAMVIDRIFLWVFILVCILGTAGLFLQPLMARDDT
Sequence of Neuronal acetylcholine receptor; alpha3/beta2 (P12390 whole entry): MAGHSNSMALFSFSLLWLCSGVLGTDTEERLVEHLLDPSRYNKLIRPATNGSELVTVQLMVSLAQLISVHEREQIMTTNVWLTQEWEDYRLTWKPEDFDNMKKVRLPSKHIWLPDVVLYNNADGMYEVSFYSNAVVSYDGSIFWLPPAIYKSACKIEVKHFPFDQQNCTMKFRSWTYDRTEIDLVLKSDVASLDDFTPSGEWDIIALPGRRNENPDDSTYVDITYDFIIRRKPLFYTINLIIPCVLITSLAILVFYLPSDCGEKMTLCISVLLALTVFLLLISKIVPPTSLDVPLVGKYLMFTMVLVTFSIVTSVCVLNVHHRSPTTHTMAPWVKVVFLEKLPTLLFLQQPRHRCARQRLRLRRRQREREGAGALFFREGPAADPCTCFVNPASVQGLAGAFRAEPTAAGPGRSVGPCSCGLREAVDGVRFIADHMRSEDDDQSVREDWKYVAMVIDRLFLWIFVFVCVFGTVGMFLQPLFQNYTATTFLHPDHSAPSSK
Sequence of Neuronal acetylcholine receptor; alpha3/beta4 (P04757 whole entry): as the sequence (P04757 whole entry) above
Sequence of Neuronal acetylcholine receptor; alpha3/beta4 (P12392 whole entry): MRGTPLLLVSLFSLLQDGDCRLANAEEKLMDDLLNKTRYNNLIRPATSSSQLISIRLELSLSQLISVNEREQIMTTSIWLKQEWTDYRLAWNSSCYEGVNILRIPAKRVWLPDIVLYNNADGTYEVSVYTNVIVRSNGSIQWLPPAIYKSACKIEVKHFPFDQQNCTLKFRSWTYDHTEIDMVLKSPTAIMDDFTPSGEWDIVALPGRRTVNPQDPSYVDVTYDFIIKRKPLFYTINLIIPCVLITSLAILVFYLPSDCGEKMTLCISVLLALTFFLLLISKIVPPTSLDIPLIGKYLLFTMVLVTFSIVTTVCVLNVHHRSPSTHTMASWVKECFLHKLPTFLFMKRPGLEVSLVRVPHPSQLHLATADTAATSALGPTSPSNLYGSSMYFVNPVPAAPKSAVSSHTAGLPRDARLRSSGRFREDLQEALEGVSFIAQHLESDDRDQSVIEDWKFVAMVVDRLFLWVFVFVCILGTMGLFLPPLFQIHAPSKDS
Sequence of Neuronal acetylcholine receptor; alpha4/beta4 (P09483 whole entry): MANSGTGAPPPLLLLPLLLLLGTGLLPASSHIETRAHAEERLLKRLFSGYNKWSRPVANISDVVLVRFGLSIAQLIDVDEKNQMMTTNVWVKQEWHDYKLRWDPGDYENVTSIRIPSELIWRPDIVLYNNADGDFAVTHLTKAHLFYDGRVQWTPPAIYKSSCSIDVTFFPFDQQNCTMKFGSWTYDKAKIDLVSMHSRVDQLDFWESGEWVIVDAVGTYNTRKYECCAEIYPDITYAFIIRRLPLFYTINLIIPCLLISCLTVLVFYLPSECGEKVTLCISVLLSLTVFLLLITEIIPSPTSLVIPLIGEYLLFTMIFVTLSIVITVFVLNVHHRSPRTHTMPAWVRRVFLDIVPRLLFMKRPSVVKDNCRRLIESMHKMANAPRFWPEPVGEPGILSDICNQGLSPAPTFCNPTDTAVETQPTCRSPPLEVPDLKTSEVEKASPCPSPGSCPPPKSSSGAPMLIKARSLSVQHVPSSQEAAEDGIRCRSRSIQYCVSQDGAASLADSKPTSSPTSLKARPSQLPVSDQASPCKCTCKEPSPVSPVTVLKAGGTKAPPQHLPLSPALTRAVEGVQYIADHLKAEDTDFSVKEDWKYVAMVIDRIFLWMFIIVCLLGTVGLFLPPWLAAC
Sequence of Neuronal acetylcholine receptor; alpha4/beta4 (P12392 whole entry): as the sequence (P12392 whole entry) above
Sequence of Neuronal acetylcholine receptor; alpha4/beta2 (P09483 whole entry): as the sequence (P09483 whole entry) above
Sequence of Neuronal acetylcholine receptor; alpha4/beta2 (P12390 whole entry): as the sequence (P12390 whole entry) above
Sequence of Neuronal acetylcholine receptor; alpha2/beta2 (P12389 whole entry): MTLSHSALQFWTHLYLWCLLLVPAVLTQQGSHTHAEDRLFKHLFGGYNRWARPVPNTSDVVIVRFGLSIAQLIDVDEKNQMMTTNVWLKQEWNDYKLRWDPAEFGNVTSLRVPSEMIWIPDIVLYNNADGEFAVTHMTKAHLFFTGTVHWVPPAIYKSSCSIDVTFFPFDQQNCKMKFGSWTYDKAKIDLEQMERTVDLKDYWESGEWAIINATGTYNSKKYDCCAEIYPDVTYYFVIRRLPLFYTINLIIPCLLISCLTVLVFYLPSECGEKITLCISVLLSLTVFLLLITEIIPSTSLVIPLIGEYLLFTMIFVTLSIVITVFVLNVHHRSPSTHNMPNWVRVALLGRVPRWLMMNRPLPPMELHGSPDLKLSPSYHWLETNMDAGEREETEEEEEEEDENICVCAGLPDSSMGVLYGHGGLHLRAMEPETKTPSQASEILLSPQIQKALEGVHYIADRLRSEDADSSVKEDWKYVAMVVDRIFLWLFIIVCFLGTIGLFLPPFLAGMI
Sequence of Neuronal acetylcholine receptor; alpha2/beta2 (P12390 whole entry): as the sequence (P12390 whole entry) above

Structure (SMILES) | Ki [1] [nM] | Ratio [2] | Ki [3] [nM] | Ratio [4] | Ki [5] [nM] | Ratio [6] | Ki [7] [nM] | Ki [8] [nM] | Ki [9] [nM] | Ki [10] [nM] | Ratio [11]
Ic1cncc(O[C@H]2CCN2)c1 | 0.42 | 387 | 0.031 | 2070 | 47 | 1520 | 290 | 0.14 | 24 | 0.062 | 690
c1cncc(OC[C@@H]2CCN2)c1 | 0.24 | – | 0.074 | – | 17 | – | 72 | – | 7.1 | 0.14 | –
Clc1ccc(C2CC3CCC2N3)cn1 (racemic; form 1) [EPIBATIDINE] | – | – | – | – | 0.087 | – | – | – | – | – | –
Clc1ccc(C2CC3CCC2N3)cn1 (racemic; form 2) [EPIBATIDINE] | – | – | – | – | 0.13 | – | – | – | – | – | –
CC(=O)OCC[N+](C)(C)C [ACETYLCHOLINE] | – | – | 11 | – | 180 | – | – | – | – | – | –
C[N+](C)(C)CCOC(N)=O [CARBACHOL] | 1100 | – | 210 | – | 640 | – | 4800 | – | 1300 | 590 | –
C[N+](C)(C)CCO [CHOLINE] | 37000 | 1 | 18000 | 1 | 21000 | 1 | 48000 | 42000 | 34000 | 37000 | 1
O=c1cccc2n1C[C@@H]1CNC[C@H]2C1 [CYTISINICLINE] | 37 | 1 | 1.4 | 84 | 5.5 | 4 | – | 2.5 | 2.2 | 1.5 | 6
C[N+]1(C)CCN(c2ccccc2)CC1 [DIMETHYLPHENYLPIPERAZINIUM IODIDE] | 42 | – | 28 | – | 1300 | – | 800 | – | – | – | –
CN1CCC[C@H]1c1cccnc1 [NICOTINE] | – | – | – | – | 130 | – | – | – | – | – | –
